Test results as given in ChEMBL document CHEMBL4402510, “Caprazamycins: Promising lead structures acting on a novel antibacterial target MraY” (Eur J Med Chem, 2019).
Values after ≈ are worked out from the molar mass of the structure shown.

Legend:
Format in all cases: functional
[1] = tested on: Mycobacterium tuberculosis variant bovis; experiment: Antibacterial activity against Mycobacterium bovis Ravenel
[2] = tested on: Mycobacterium tuberculosis variant bovis; experiment: Antibacterial activity against Mycobacterium bovis after 20 hrs by NCCLS-based two-fold broth dilution method
[3] = tested on: Mycobacterium tuberculosis variant bovis; experiment: Antibacterial activity against Mycobacterium bovis

| Compound | MIC [1] | other results |
| --- | --- | --- |
| CCCCCCCOc1ccc(NC(=O)C2=CCN(C)[C@@H]([C@H](O[C@@H]3O[C@H](CN)[C@@H](O)[C@H]3O)[C@H]3O[C@@H](n4ccc(=O)[nH]c4=O)[C@H](O)[C@@H]3O)C(=O)N2C)cc1 | 0.78 µg/mL (≈ 1.04 µM) |  |
| CCCCCCCCCCCCCCNC(=O)C1=CCN(C)[C@@H]([C@H](O[C@@H]2O[C@H](CN)[C@@H](O)[C@H]2O)[C@H]2O[C@@H](n3ccc(=O)[nH]c3=O)[C@H](O)[C@@H]2O)C(=O)N1C | 1.56 µg/mL (≈ 2.07 µM) |  |
| CCCCCCCc1ccc(NC(=O)C2=CCN(C)[C@@H]([C@H](O[C@@H]3O[C@H](CN)[C@@H](O)[C@H]3O)[C@H]3O[C@@H](n4ccc(=O)[nH]c4=O)[C@H](O)[C@@H]3O)C(=O)N2C)cc1 | 0.78 µg/mL (≈ 1.07 µM) |  |
| CCCCCNC(=O)C1=CCN(C)[C@@H]([C@H](O[C@@H]2O[C@H](CN)[C@@H](O)[C@H]2O)[C@H]2O[C@@H](n3ccc(=O)[nH]c3=O)[C@H](O)[C@@H]2O)C(=O)N1C | 6.25 µg/mL (≈ 9.97 µM) |  |
| CCCCCCCCNC(=O)C1=CCN(C)[C@@H]([C@H](O[C@@H]2O[C@H](CN)[C@@H](O)[C@H]2O)[C@H]2O[C@@H](n3ccc(=O)[nH]c3=O)[C@H](O)[C@@H]2O)C(=O)N1C | 1.56 µg/mL (≈ 2.33 µM) |  |
| CCCCc1ccc(NC(=O)C2=CCN[C@@H]([C@H](O[C@@H]3O[C@H](CN)[C@@H](O)[C@H]3O)[C@H]3O[C@@H](n4ccc(=O)[nH]c4=O)[C@H](O)[C@@H]3O)C(=O)N2C)cc1 | 3.13 µg/mL (≈ 4.64 µM) |  |
| CCCCCCCCCCCNC(=O)C1=CCN(C)[C@@H]([C@H](O[C@@H]2O[C@H](CN)[C@@H](O)[C@H]2O)[C@H]2O[C@@H](n3ccc(=O)[nH]c3=O)[C@H](O)[C@@H]2O)C(=O)N1C | 1.56 µg/mL (≈ 2.19 µM) |  |
| CCc1ccc(NC(=O)C2=CCN(C)[C@@H]([C@H](O[C@@H]3O[C@H](CN)[C@@H](O)[C@H]3O)[C@H]3O[C@@H](n4ccc(=O)[nH]c4=O)[C@H](O)[C@@H]3O)C(=O)N2C)cc1 | 1.56 µg/mL (≈ 2.36 µM) |  |
| CCCCCCCCCCOC(=O)C1=CCN(C)[C@@H]([C@H](O[C@@H]2O[C@H](CN)[C@@H](O)[C@H]2O)[C@H]2O[C@@H](n3ccc(=O)[nH]c3=O)[C@H](O)[C@@H]2O)C(=O)N1C | 12.5 µg/mL (≈ 17.9 µM) |  |
| CCCCCCCCCCCCCCCCCCCCCNC(=O)C1=CCN(C)[C@@H]([C@H](O[C@@H]2O[C@H](CN)[C@@H](O)[C@H]2O)[C@H]2O[C@@H](n3ccc(=O)[nH]c3=O)[C@H](O)[C@@H]2O)C(=O)N1C | 1.56 µg/mL (≈ 1.83 µM) |  |
| CCCCCCCCCCCCCCCCNC(=O)C1=CCN(C)[C@@H]([C@H](O[C@@H]2O[C@H](CN)[C@@H](O)[C@H]2O)[C@H]2O[C@@H](n3ccc(=O)[nH]c3=O)[C@H](O)[C@@H]2O)C(=O)N1C | 3.13 µg/mL (≈ 4.01 µM) |  |
| CCCCCCCCCCCCCCCCCCNC(=O)C1=CCN(C)[C@@H]([C@H](O[C@@H]2O[C@H](CN)[C@@H](O)[C@H]2O)[C@H]2O[C@@H](n3ccc(=O)[nH]c3=O)[C@H](O)[C@@H]2O)C(=O)N1C | 1.56 µg/mL (≈ 1.93 µM) |  |
| CCCCCCCCCNC(=O)C1=CCN(C)[C@@H]([C@H](O[C@@H]2O[C@H](CN)[C@@H](O)[C@H]2O)[C@H]2O[C@@H](n3ccc(=O)[nH]c3=O)[C@H](O)[C@@H]2O)C(=O)N1C | 1.56 µg/mL (≈ 2.28 µM) |  |
| CC/C=C/CCCCCCCCCCOC(=O)C1=CCN(C)[C@@H]([C@H](O[C@@H]2O[C@H](CN)[C@@H](O)[C@H]2O)[C@H]2O[C@@H](n3ccc(=O)[nH]c3=O)[C@H](O)[C@@H]2O)C(=O)N1C | 6.25 µg/mL (≈ 8.31 µM) |  |
| CCCCOc1ccc(NC(=O)C2=CCN(C)[C@@H]([C@H](O[C@@H]3O[C@H](CN)[C@@H](O)[C@H]3O)[C@H]3O[C@@H](n4ccc(=O)[nH]c4=O)[C@H](O)[C@@H]3O)C(=O)N2C)cc1 | 3.13 µg/mL (≈ 4.44 µM) |  |
| CCCCc1ccc(NC(=O)C2=CCN(C)[C@@H]([C@H](O[C@@H]3O[C@H](CN)[C@@H](O)[C@H]3O)[C@H]3O[C@@H](n4ccc(=O)[nH]c4=O)[C@H](O)[C@@H]3O)C(=O)N2C)cc1 |  | MIC [2]: 3.13 µg/mL (≈ 4.54 µM) |
| CCCCCCCCCCCCCCCCCCOC(=O)C1=CCN(C)[C@@H]([C@H](O[C@@H]2O[C@H](CN)[C@@H](O)[C@H]2O)[C@H]2O[C@@H](n3ccc(=O)[nH]c3=O)[C@H](O)[C@@H]2O)C(=O)N1C | 3.13 µg/mL (≈ 3.86 µM) |  |

| Compound | MIC [1] | other results |
| --- | --- | --- |
| CCCCCCCCCCCCNC(=O)C1=CCN(C)[C@@H]([C@H](O[C@@H]2O[C@H](CN)[C@@H](O)[C@H]2O)[C@H]2O[C@@H](n3ccc(=O)[nH]c3=O)[C@H](O)[C@@H]2O)C(=O)N1C | 1.56 µg/mL (≈ 2.15 µM) |  |
| CCCCCCCCCCCCCCCNC(=O)C1=CCN(C)[C@@H]([C@H](O[C@@H]2O[C@H](CN)[C@@H](O)[C@H]2O)[C@H]2O[C@@H](n3ccc(=O)[nH]c3=O)[C@H](O)[C@@H]2O)C(=O)N1C | 1.56 µg/mL (≈ 2.03 µM) |  |
| CCCCCCCCCCCCCCCCCCCCNC(=O)C1=CCN(C)[C@@H]([C@H](O[C@@H]2O[C@H](CN)[C@@H](O)[C@H]2O)[C@H]2O[C@@H](n3ccc(=O)[nH]c3=O)[C@H](O)[C@@H]2O)C(=O)N1C | 0.78 µg/mL (≈ 0.932 µM) |  |
| CCCCCCCCCCCCCCc1ccc(NC(=O)C2=CCN(C)[C@@H]([C@H](O[C@@H]3O[C@H](CN)[C@@H](O)[C@H]3O)[C@H]3O[C@@H](n4ccc(=O)[nH]c4=O)[C@H](O)[C@@H]3O)C(=O)N2C)cc1 | 3.13 µg/mL (≈ 3.78 µM) |  |
| CO[C@@H]1[C@@H](OC)[C@H](C)O[C@@H](OC(=O)C[C@@H](C)CC(=O)O[C@@H](CCCCCCCCCCC(C)C)CC(=O)O[C@H]2CN(C)[C@@H]([C@H](O[C@@H]3O[C@H](CN)[C@@H](O)[C@H]3O)[C@H]3O[C@@H](n4ccc(=O)[nH]c4=O)[C@H](O)[C@@H]3O)C(=O)N(C)[C@@H]2C(=O)O)[C@@H]1OC |  | MIC [3]: 3.13 µg/mL (≈ 2.73 µM) |
| CN1C(=O)[C@H]([C@H](O[C@@H]2O[C@H](CN)[C@@H](O)[C@H]2O)[C@H]2O[C@@H](n3ccc(=O)[nH]c3=O)[C@H](O)[C@@H]2O)N(C)CC=C1C(=O)Nc1ccc(C2CCCCC2)cc1 | 1.56 µg/mL (≈ 2.18 µM) |  |
| C=CCCCCCCCCCOC(=O)C1=CCN(C)[C@@H]([C@H](O[C@@H]2O[C@H](CN)[C@@H](O)[C@H]2O)[C@H]2O[C@@H](n3ccc(=O)[nH]c3=O)[C@H](O)[C@@H]2O)C(=O)N1C | 12.5 µg/mL (≈ 17.6 µM) |  |
| CN1C(=O)[C@H]([C@H](O[C@@H]2O[C@H](CN)[C@@H](O)[C@H]2O)[C@H]2O[C@@H](n3ccc(=O)[nH]c3=O)[C@H](O)[C@@H]2O)N(C)CC=C1C(=O)NC1CCCCCCCCCCC1 | 1.56 µg/mL (≈ 2.16 µM) |  |
| CCCCCCCC/C=C/CCCCCCCCNC(=O)C1=CCN(C)[C@@H]([C@H](O[C@@H]2O[C@H](CN)[C@@H](O)[C@H]2O)[C@H]2O[C@@H](n3ccc(=O)[nH]c3=O)[C@H](O)[C@@H]2O)C(=O)N1C | 3.13 µg/mL (≈ 3.88 µM) |  |
| CCCCCCCCCCNC(=O)C1=CCN(C)[C@@H]([C@H](O[C@@H]2O[C@H](CN)[C@@H](O)[C@H]2O)[C@H]2O[C@@H](n3ccc(=O)[nH]c3=O)[C@H](O)[C@@H]2O)C(=O)N1C | 1.56 µg/mL (≈ 2.24 µM) |  |
| CCCCCCCCCCCCCCCCCNC(=O)C1=CCN(C)[C@@H]([C@H](O[C@@H]2O[C@H](CN)[C@@H](O)[C@H]2O)[C@H]2O[C@@H](n3ccc(=O)[nH]c3=O)[C@H](O)[C@@H]2O)C(=O)N1C | 1.56 µg/mL (≈ 1.96 µM) |  |
| CCCCCCCCCCCCCOC(=O)C1=CCN(C)[C@@H]([C@H](O[C@@H]2O[C@H](CN)[C@@H](O)[C@H]2O)[C@H]2O[C@@H](n3ccc(=O)[nH]c3=O)[C@H](O)[C@@H]2O)C(=O)N1C | 3.13 µg/mL (≈ 4.23 µM) |  |
| CCCCCCCNC(=O)C1=CCN(C)[C@@H]([C@H](O[C@@H]2O[C@H](CN)[C@@H](O)[C@H]2O)[C@H]2O[C@@H](n3ccc(=O)[nH]c3=O)[C@H](O)[C@@H]2O)C(=O)N1C | 1.56 µg/mL (≈ 2.38 µM) |  |
| CCCCCCCCCCCCCCCCCCCNC(=O)C1=CCN(C)[C@@H]([C@H](O[C@@H]2O[C@H](CN)[C@@H](O)[C@H]2O)[C@H]2O[C@@H](n3ccc(=O)[nH]c3=O)[C@H](O)[C@@H]2O)C(=O)N1C | 1.56 µg/mL (≈ 1.9 µM) |  |
| CCCCCCCCCCCCCNC(=O)C1=CCN(C)[C@@H]([C@H](O[C@@H]2O[C@H](CN)[C@@H](O)[C@H]2O)[C@H]2O[C@@H](n3ccc(=O)[nH]c3=O)[C@H](O)[C@@H]2O)C(=O)N1C | 1.56 µg/mL (≈ 2.11 µM) |  |
| CCCCCCc1ccc(NC(=O)C2=CCN(C)[C@@H]([C@H](O[C@@H]3O[C@H](CN)[C@@H](O)[C@H]3O)[C@H]3O[C@@H](n4ccc(=O)[nH]c4=O)[C@H](O)[C@@H]3O)C(=O)N2C)cc1 | 0.2 µg/mL (≈ 0.279 µM) |  |
| CCCCCCNC(=O)C1=CCN(C)[C@@H]([C@H](O[C@@H]2O[C@H](CN)[C@@H](O)[C@H]2O)[C@H]2O[C@@H](n3ccc(=O)[nH]c3=O)[C@H](O)[C@@H]2O)C(=O)N1C | 3.13 µg/mL (≈ 4.89 µM) |  |
